What was measured:
[1] = tested on: KLK6; assay: Enzyme kinetics to calculate KM, KLK6; type: biochemical, human; settings: fluorogenic substrate, KLK6 1.5 nM, 2% DMSO, room temperature, 30 min, Michaelis-Menten model, triplicates
Experimental: (§1) Reagents were obtained from VWR, Sigma Aldrich, Sartorius, Fluorochem, AGTC, Novabiochem, TCI, Alfa Aesar, Iris Biotech, Thermofisher and Bachem. […]
(§2) (Code 7449-SE) and KLK8 (Code 2025-SE) were obtained from BioTechne. KLK6 was obtained from the group of Aubry Miller (DKFZ) and KLK7 was obtained from the group of Judith Clements (QUT).
The manufacturer’s recommended buffers were used with uPA and tPA but not KLK8. The KLK6 assay buffer was as follows: 50 mM Tris 150 mM NaCl, 1 mM EDTA, 0.05% Tween20, pH 7.5. The KLK7/8 buffer was as follows: 100 mM Na2PO4, 0.01% Tween20, pH 8.5. Fluorescence measurements were measured using an Envision plate reader. Fluorescence data was processed using Graphpad Prism 8. […]
(§3) 2-chlorotrityl chloride resin. […]
(§4) 380nm/440nm. The data was analysed using Graphpad Prism 8. The initial slopes of each plot were calculated and presented in a bar chart, which represents the substrate specificity of the KLK. […]
(§5) Enzyme kinetics to calculate KM. Purified fluorogenic substrates were measured in triplicates. […]
(§6) temperature, fluorescence was read once every 30 s for 30 min from an Envision plate reader at excitation/emission wavelengths of 380nm/440nm. The data was analysed with Graphpad Prism 8, using the Michaelis-Menten model.
(§7) Enzyme kinetics to calculate kobs/I. All ABPs and inhibitors were measured in triplicates. […]

[2] = tested on: KLK6; assay: Enzyme kinetics to calculate kobs/I, KLK6; type: biochemical, human; settings: KLK6 1.5 nM, fluorogenic substrate 22 5 µM, 50 mM Tris 150 mM NaCl 1 mM EDTA 0.05% Tween20 pH 7.5, room temperature, read every 30 s for 30 min, ex/em 380/440 nm, pseudo first order kinetics, corrected by (1 + [S]/KM), triplicates
[3] = target: T1, tPA (Homo sapiens, UniProt P00750); assay: Enzyme kinetics to calculate KM, tPA; type: biochemical; settings: fluorogenic substrate, tPA 2 nM, 2% DMSO, room temperature, 30 min, Michaelis-Menten model, triplicates
T1 construct: purchased BioTechne 7449-SE
Experimental: as §1, §2
The manufacturer’s recommended buffers were used with uPA and tPA but not KLK8. […]
(§8) Fluorescence measurements were measured using an Envision plate reader. Fluorescence data was processed using Graphpad Prism 8. […]
as §3
380nm/440nm. The data was analysed using Graphpad Prism 8. The initial slopes of each plot were calculated and presented in a bar chart, which represents the substrate specificity of the KLK. Error bars represent the standard deviation between the three replicates.
as §5, §6, §7
using a pseudo first order kinetics model. The observed rate of inhibition (kobs) was calculated by plotting a one-phase association. […]

[4] = target: T2, uPA (Homo sapiens, UniProt P00749); assay: Enzyme kinetics to calculate KM, uPA; type: biochemical; settings: fluorogenic substrate, uPA 2 nM, 2% DMSO, room temperature, 30 min, Michaelis-Menten model, triplicates
T2 construct: purchased BioTechne 1310-SE
Experimental: Reagents were obtained from VWR, Sigma Aldrich, Sartorius, Fluorochem, AGTC, Novabiochem, TCI, Alfa Aesar, Iris Biotech, Thermofisher and Bachem. 1H and 13C NMR spectra were measured on 400 MHz Bruker AV instruments. Cells were obtained directly from the ATCC. A Waters LC-MS system (2767 sample manager, 2998 UV detector and 3100 mass detector) was used for the analysis and purification of peptides. The analytical column was an Xbridge C18 4.6 mm x 100 mm. The preparative column used to purify the peptides was an Xbridge C18 19 mm x 100 mm. For analytical LC-MS, the flow rate was 1.2 mL/min, while preparative runs were at 20 mL/min. […]
All solvents contained an additive (0.1% formic acid). High resolution mass was recorded on a Micromass Autospec Premier through the Imperial College London mass spectrometry services. […]
as §8
Peptides were prepared using standard fluorenylmethoxycarbonyl (Fmoc) solid phase peptide synthesis. Reactions were monitored using the ninhydrin test. […]
as §4, §5

[5] = target: T3, KLK8 (Homo sapiens, UniProt O60259); assay: Enzyme kinetics to calculate kobs/I, KLK8; type: biochemical; settings: KLK8 1 nM, Boc-VPR-AMC 30 µM, 100 mM Na2PO4 0.01% Tween20 pH 8.5, room temperature, 30 min, pseudo first order kinetics, triplicates
T3 construct: Active recombinant FGFBP1 (Code 1593-FB), HSPG2 (Code 2364-ER), uPA (Code 1310-SE), tPA (Code 7449-SE) and KLK8 (Code 2025-SE) were obtained from BioTechne; purchased BioTechne 2025-SE
T3 sequence (O60259 33-260): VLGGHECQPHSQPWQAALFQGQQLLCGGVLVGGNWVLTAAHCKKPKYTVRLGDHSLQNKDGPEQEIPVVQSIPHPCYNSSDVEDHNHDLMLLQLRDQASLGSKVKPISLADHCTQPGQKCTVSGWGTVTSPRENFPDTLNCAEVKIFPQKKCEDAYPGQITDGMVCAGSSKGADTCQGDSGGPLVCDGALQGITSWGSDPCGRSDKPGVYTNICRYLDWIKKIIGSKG

[6] = tested on: Capan-2 cells; settings: 0.13 to 2 μM, Incucyte live cell imaging every 4 h for 5 days, serum-free DMEM
Experimental: Incucyte assays for proliferation and toxicity
Proliferation was quantified using the Incucyte software by measuring percentage confluency. Sytox
green was used as a marker for cell death. Cell death was quantified by measuring total green
fluorescence of each well.
Incucyte (proliferation and toxicity) assays. Capan-2 cells were seeded in a sterile 96 well plate
(10,000 cells per well). The outermost wells were left empty to mitigate edge effects. Cells were grown
in growth media (10% FBS) overnight to adhere. The next day, the media was replaced with serum-free
DMEM (117 µL) containing Sytox green (250 nM) or a DMSO control.

[7] = tested on: Capan-2 cells; settings: Capan-2 cells (active KLK6), 2 μM, 24 h, relative to DMSO
Experimental: (§9) Next, the effect of KLK6 inhibition on migration and invasion of Capan-2 cells was assessed using a Boyden chamber assay.
(§10) (13 µL per condition). Control conditions included puromycin (100 µg/mL), DMSO only, Sytox green only or DMSO + Sytox green. The final inhibitor concentrations ranged from 2 µM to 125 nM. The cells were placed into an Incucyte with the incubator set at 37 °C and 5% CO2. Phase and green fluorescence were analysed every 4 h for 5 days.
(§11) Invasion/migration assays. Cell invasion was measured using Corning Fluoroblok inserts following a modified procedure11. Fluoroblok inserts were placed into the wells of a 24-well plate. Matrigel was suspended to 300 µg/mL in coating buffer (0.01M Tris, 0.7% NaCl, pH 8). The matrigel suspension (100 µL) was added into the Fluoroblok insert and the plate was left at 37 °C for 2 h. A migration control (with no matrigel) was also included. Cells were trypsinised and resuspended in serum-free DMEM.
(§12) The leftover buffer in the chambers was decanted and 500 µL of cells (100,000 per well) were seeded into the apical chamber of the insert. DMEM with 10% FBS (750 µL) was added into the basal chamber as a chemoattractant. The plate was incubated at 37 °C and 5% CO2 for 24 h. The chambers were removed and placed into a new 24-well plate containing 50 µM of CellTracker CMHC dye in HBSS. The cells were stained for 0.5 h and the chamber was removed and placed into the previous plate containing DMEM with 10% FBS. The cells were imaged for blue fluorescence (ex/em = 375/460) using a Celena S inverted fluorescence microscope. Percentage invasion was calculated by quantifying the cell area

[8] = tested on: BxPC-3 cells; settings: BxPC-3 cells (no active KLK6), 2 μM, 24 h, relative to DMSO
Experimental: as §9, §10, §11, §12

[9] = tested on: endogenous active KLK6; settings: Capan-2 conditioned media, streptavidin pulldown, KLK6 western blot
Experimental: Conditioned media was incubated with bABP 17 (10 μM) or DMSO for 2 h, and labeled proteins enriched on magnetic streptavidin-loaded beads, eluted, and analyzed by western blot against a KLK6 antibody.
Cell culture. Cells were cultured in their recommended culture media supplemented with 10% (v/v)
foetal bovine serum at 37 °C and 5% CO2.
Preparation of conditioned media. Cells were grown in standard growth media to 80% confluency in
a T175 flask. The medium was removed, and the cells were washed with serum-free, phenol-red free
RPMI. The cells were incubated with the same RPMI for 2 h. The medium was replaced once again
with serum-free, phenol-red free RPMI and the cells were incubated for 48 h. The condition medium
was collected and filtered through a 0.2 µm syringe filter. The medium was concentrated (25 mL to
0.75 mL) using a 3 kDa Mw cutoff spin filter to a final concentration of around 1 mg/mL. The protein
concentration was measured using a BioRad DCTM protein assay.
Pulldown experiments (western blot). Conditioned media was diluted with PBS to exactly 1 mg/mL.
200 µg of total protein was used per condition. The ABP or DMSO was added at a 1:100 dilution and
the samples were shaken at RT for 1 h. The proteins were precipitated using the MeOH/H2O/CHCl3
method. The pellet was washed twice with MeOH and dried in air for 5 min. The protein was
resuspended in 2% SDS in PBS to a concentration of 10 mg/mL. PBS was added to gradually dilute
the protein back to 1 mg/mL and the samples were centrifuged (17,000 g, 5 min). 5 µg of protein was
set aside as the “before pulldown” samples. Magnetic streptavidin beads were washed three times with
PBS. The rest of the protein was added into the beads and shaken at RT for 2 h. 5 µg of the supernatant
was set aside for analysis, while the rest was discarded. The beads were washed three times with 1%
SDS in PBS. […]
were boiled at 95 °C for 5 min. The proteins were analysed via SDS-PAGE and western blot analysis. […]
10 min, followed by 180 V for 60 min. Gels were then taken for western blot or in-gel fluorescence. […]

[10] = Fluoroblok insert without Matrigel
[11] = Matrigel-coated Fluoroblok insert

T1 sequence (P00750 36-562): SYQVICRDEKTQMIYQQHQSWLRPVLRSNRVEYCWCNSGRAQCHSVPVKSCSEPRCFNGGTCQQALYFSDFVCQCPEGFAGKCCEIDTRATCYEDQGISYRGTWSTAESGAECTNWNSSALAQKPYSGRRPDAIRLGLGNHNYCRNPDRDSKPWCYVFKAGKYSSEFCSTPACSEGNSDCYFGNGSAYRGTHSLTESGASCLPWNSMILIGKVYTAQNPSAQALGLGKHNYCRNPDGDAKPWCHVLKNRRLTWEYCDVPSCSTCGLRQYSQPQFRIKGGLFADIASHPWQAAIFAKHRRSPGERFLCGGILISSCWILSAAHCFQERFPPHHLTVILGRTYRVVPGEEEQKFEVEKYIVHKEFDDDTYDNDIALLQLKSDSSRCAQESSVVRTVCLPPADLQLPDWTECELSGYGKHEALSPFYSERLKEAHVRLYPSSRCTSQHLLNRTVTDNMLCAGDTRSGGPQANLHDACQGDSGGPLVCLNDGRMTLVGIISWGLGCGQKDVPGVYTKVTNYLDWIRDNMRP

Substance | KLK6 kobs/I [2] [M^–1 s^–1] | further results
Ac-DPhe-Ser(Z)-Dht-Arg-ACC [compound 23, purified fluorogenic substrate for KLK6] |  | Km [1]: 180 µM
Ac-Thr(Z)-Ala-Phg-Arg-ACC [compound 22, purified fluorogenic substrate for KLK6] |  | Km [1]: 86 µM
Yn–Asp(Chx)–Cha–His(Z)–Phg(4-guan)PP [compound 4] | 54 | 
Yn–DPhe–Ser(Z)–Dht–DArgPP [compound 20] | 0 | 
Yn–Thr(Z)–Ala–Dab(Z)–Phg(4-guan)PP [compound 8] | 11 | 
Yn–Thr(Z)–Ala–Dht–Phg(4-guan)PP [compound 5] | 250 | 
Yn–Thr(Z)–Ala–Phg–Phg(4-guan)PP [compound 1] | 220 | 
Yn–Thr(Z)–Ala–Ser(Z)–Phg(4-guan)PP [compound 7] | 43 | 
Yn–Thr(Z)–Ala–Tyr(Z)–Phg(4-guan)PP [compound 6] | 7 | 
Yn–Thr(Z)–Cha–His(Z)–Phg(4-guan)PP [compound 3] | 46 | 
Yn–Thr(Z)–Chg–His(Z)–Phg(4-guan)PP [compound 2] | 30 | 
Z-GGR-AMC |  | Km [3]: 1200 µM; Km [4]: 190 µM
biotin–Ahx–DPhe–Cha–Dht–ArgPP [compound 16] | 1300 | KLK8 kobs/I [5]: 150 M^–1 s^–1
biotin–Ahx–DPhe–Cha–Dht–Phg(4-guanPP [compound 11] | 210 | KLK8 kobs/I [5]: 0 M^–1 s^–1
biotin–Ahx–DPhe–Cha–Ser(Ac)–Phg(4-guan)PP [compound 15] | 150 | KLK8 kobs/I [5]: 20 M^–1 s^–1
biotin–Ahx–DPhe–DLys–Dht–Phg(4-guan)PP [compound 14] | 550 | KLK8 kobs/I [5]: 73 M^–1 s^–1
biotin–Ahx–DPhe–Lys–Dht–Phg(4-guan)PP [compound 13] | 250 | 
biotin–Ahx–DPhe–Ser(Z)–Dht–DArgPP [compound 18] | 0 | effect on proliferation (percentage confluency) [6]: no effect; effect on migration [7, 10]: no effect; effect on invasion [7, 11]: no effect; effect on migration [8, 10]: no effect; effect on invasion [8, 11]: no effect; labeling of endogenous KLK6 [9]: no KLK6 labeling
biotin–Ahx–DhPhe–Cha–Dht–Phg(4-guan)PP [compound 12] | 140 | KLK8 kobs/I [5]: 0 M^–1 s^–1
biotin–Ahx–Thr(Z)–Ala–Dht–Phg(4-guan)PP [compound 9] | 220 | 
biotin–Ahx–Thr(Z)–Cha–Dht–Phg(4-guan)PP [compound 10] | 420 | KLK8 kobs/I [5]: 71 M^–1 s^–1
